Reference: patent publication US7125891B2, “Tripeptidyl peptidase inhibitors” (Janssen Pharmaceutica N.V., priority 2000, dated 2006)
Counter-ions that a name gives are not always drawn.

Row | Structure (SMILES) | melting point [°C]
1 | NCC(=O)N1c2ccccc2CC1c1nc2cc(C(=O)O)ccc2[nH]1 (stereo not shown) (as salt: trifluoroacetate) (hydrate or solvate) [Compound 62, 2-[1-(aminoacetyl)-2,3-dihydro-1H-indol-2-yl]-1H-benzimidazole-5-carboxylic acid monohydrate trifluoroacetate (1:2)] | 208 to 211
2 | CCCc1nc(C2Cc3ccccc3N2C(C)=O)no1 (stereo not shown) | 93 to 94
3 | CCc1cn(C)c(C2Cc3ccccc3N2C(C)=O)n1 (stereo not shown) | 105 to 106
4 | CCc1cnc(C2Cc3ccccc3N2C(=O)c2ccccc2C(=O)O)[nH]1 (stereo not shown) (as salt: trifluoroacetate) | 98 to 103
5 | CCc1cnc(C2Cc3ccccc3N2C(=O)Nc2ccccc2[N+](=O)[O-])[nH]1 (stereo not shown) | 208 to 209
6 | CCCc1nc(C2Cc3ccccc3N2C(=O)CN)no1 (stereo not drawn) (as salt: trifluoroacetate) [Compound 90, 2,3-dihydro-β-oxo-2-(5-propyl-1,2,4-oxadiazol-3-yl)-1H-indole-1-ethanamine trifluoroacetate (1:1)] | 160 to 162

The remaining lines, values ahead:

Row | melting point [°C] | Structure (SMILES)
7 | 132 to 140 | CCCc1cnc(C2Cc3ccccc3N2C(=O)C(N)CC)[nH]1 (stereo not drawn) (as salt: HCl) (hydrate or solvate) [Compound 15, [2S-[1(R*),2R*]]-α-ethyl-2,3-dihydro-β-oxo-2-(4-propyl-1H-imidazol-2-yl)-1H-indole-1-ethanamine dihydrochloride dihydrate]
8 | 174 to 175 | CCCc1cnc(C2Cc3ccccc3N2C(C)=O)[nH]1 (stereo not shown)
9 | 106 to 108 | CCc1cnc(C2Cc3ccccc3N2C(=O)Nc2ccccc2N)[nH]1 (stereo not shown) (as salt: trifluoroacetate)
10 | 77 to 80 | CCCc1cnc(C2Cc3ccccc3N2C(=O)C(C)N(C)C(=O)OC(C)C)[nH]1 (stereo not shown)
